In patent publication US9018224B2, “Substituted cyclopropyl compounds useful as GPR119 agonists” (Merck Sharp & Dohme Corp., priority 2011, dated 2015) one finds EC50 data, which are given here for 43 compounds.

One may read the EC50 as the concentration giving half of the maximal effect. Low values mean higher potency in that assay, high ones lower potency in that assay.

SMILES strings stand for the structures.

This assay concerns the target T1, human GPR119 (Homo sapiens, UniProt Q8TDV5).
T1 sequence (Q8TDV5 1-308 limits assumed): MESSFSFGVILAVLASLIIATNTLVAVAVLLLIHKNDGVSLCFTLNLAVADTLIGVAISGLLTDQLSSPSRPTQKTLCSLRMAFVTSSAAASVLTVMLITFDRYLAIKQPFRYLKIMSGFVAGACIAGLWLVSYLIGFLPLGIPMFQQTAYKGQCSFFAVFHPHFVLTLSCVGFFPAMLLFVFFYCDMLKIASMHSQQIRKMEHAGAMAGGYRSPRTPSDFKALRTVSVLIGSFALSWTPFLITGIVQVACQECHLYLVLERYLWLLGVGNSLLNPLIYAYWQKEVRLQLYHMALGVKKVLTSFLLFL
Briefly: Measurement of GPR119 signaling by cAMP (LANCE cAMP kit or HTRF) in HEK293 cells transfected with human GPR119. It counts as cell-based. The note with it: agonist cAMP response in HEK293 cells stably transfected with human GPR119; patent does not say which of the two cAMP formats (LANCE or HTRF). Here is the method:
Measurement of GPR119 Signaling Using LANCE 384-Well cAMP Kit
The adenylate cyclase assay was constructed following the LANCE™ cAMP Kit (Perkin Elmer, AD0264) instructions. […] The reaction was stopped by incubating with the supplied detection buffer containing the europium chelate of the Eu-SA/Biotin-cAMP tracer for 3 hours. The assay was performed in duplicate in a 384 well plate for duplicate plates. […] Basal activity was determined using a DMSO control and maximum response was defined as cAMP stimulation produced by an internal agonist control. Standard cAMP concentrations were assayed concurrently for conversion of fluorescence signal to cAMP level. The data was analyzed using 4-parameter curve fit in Microsoft Excel
Measurement of GPR119 Signaling Using a Cyclic AMP (cAMP) Homogenous Time Resolved Fluorescence (HTRF) Assay
Chinese hamster ovary (CHO) cell lines stably transfected with the permissive guanine nucleotide binding protein alpha 15 (Gα15) and murine GPR119 were maintained in DMEM media containing FBS, penicillin-streptomycin, puromycin, and G418 (geneticin). […] Agonist activation of the GPR119 receptor was measured in receptor transfected cells described above, treated with compounds of this invention, using a commercial homogenous time resolved fluorescence (HTRF) kit for measurement of cAMP (CisBio, Bedford, Mass.). The assay was performed in 96-well half-volume plates (murine) or 384-well plates (human) following the manufacturers instructions. Briefly, suspended cells were incubated with a dose titration of test compound at room temperature for 60 min, lysed, and incubated with HTRF reagents for an additional 60 min. The plate was read using an Envision multilabel reader (Perkin Elmer) adjusted to read time resolved fluorescence and the cAMP concentrations were extrapolated from a cAMP calibration curve. […] The concentration of test compound required to stimulate a half-maximal response (EC50), and efficacy as compared to an internal agonist control, was determined from a sigmoidal 4-parameter curve fit of the resulting plot of normalized activity versus compound concentration.
Background: In TR-FRET formats the signal depends on donor and acceptor labels being close together.
With `O=C(Cc1ccc(OCC[C@@H]2C[C@@H]2C2CCN(c3ncc(Cl)cn3)CC2)cc1F)N1CC(F)C1` [Example 68], the EC50 turned out to be 0.33 nM. That is a sub-nanomolar value.

With `CC1(NC(=O)Cc2ccc(OCC[C@@H]3C[C@@H]3C3CCN(c4ncc(Cl)cn4)CC3)cc2F)CCCCC1` [Example 91], the EC50 worked out at 9.3 nM.

Turning to `O=C(Cc1ccc(OCC[C@@H]2C[C@@H]2C2CCN(c3ncc(Cl)cn3)CC2)cc1F)N1CCOCC1` [Example 80], the EC50 was determined as 0.76 nM. This EC50 lies about 12-fold lower than the previous one.

`O=C(Cc1ccc(OCC[C@@H]2C[C@@H]2C2CCN(c3ncc(Cl)cn3)CC2)cc1F)NCC(F)(F)F` [Example 79] returned an EC50 of 1.6 nM.

As to `O=C(Cc1ccc(OCC[C@@H]2C[C@@H]2C2CCN(c3ncc(Cl)cn3)CC2)cc1F)N1CCn2cc(C(F)(F)F)nc2C1` [Example 132], it took 0.55 nM to reach a half-maximal effect (EC50).

As to `O=C(Cc1ccc(OCC[C@@H]2C[C@@H]2C2CCN(c3ncc(Cl)cn3)CC2)cc1F)N1CCCC1` [Example 85], the EC50 came out at 0.61 nM. This EC50 and that of the compound before are within 1.5-fold of each other.

For `COCc1cnc(N2CCC([C@H]3C[C@H]3CCOc3cc(F)c(CC(=O)N4CC(C)(O)C4)c(F)c3)CC2)nc1` [Example 221], the EC50 was 2.1 nM.

On to `COCc1ccc(N2CCC([C@H]3C[C@H]3CCOc3ccc(CC(=O)N4CCC4)c(F)c3)CC2)nc1` [Example 237, 1-(azetidin-1-yl)-2-(2-fluoro-4-{2-[(1S,2R)-2-{1-[5-(methoxymethyl)pyridin-2-yl]piperidin-4-yl}cyclopropyl]ethoxy}phenyl)ethanone], for which it took 0.94 nM to reach a half-maximal effect (EC50). This EC50 is about 2.2-fold lower than that of the compound before.

For `O=C(Cc1ccc(OCC[C@@H]2C[C@@H]2C2CCN(c3ncc(Cl)cn3)CC2)cc1F)N1C[C@H](F)[C@@H](F)C1` [Example 75], the EC50 was found to be 0.78 nM.

In turn, `Cc1nc2c([nH]1)CN(C(=O)Cc1ccc(OCC[C@@H]3C[C@@H]3C3CCN(c4ncc(Cl)cn4)CC3)cc1F)C2` [Example 121] gave a concentration giving a half-maximal response (EC50) of 2.2 nM. Against the preceding compound, the EC50 is about 2.8-fold higher.

`COCc1cnc(N2CCC([C@H]3C[C@H]3CCOc3ccc(CC(=O)N4CC(F)C4)c(F)c3)CC2)nc1` [Example 43] yielded an EC50 of 0.54 nM. This EC50 is about 4.1-fold lower than that of the compound before.

With `CC1CC(C)CN(C(=O)Cc2ccc(OCC[C@@H]3C[C@@H]3C3CCN(c4ncc(Cl)cn4)CC3)cc2F)C1` (stereo partly shown) [Example 89], the EC50 worked out at 8.6 nM.

Compound `COCc1cnc(N2CCC([C@H]3C[C@H]3CCOc3ccc(CC(=O)N4CC5CC5C4)c(F)c3)CC2)nc1` (stereo partly shown) [Example 51] returned an EC50 of 0.98 nM.

`COCc1cnc(N2CCC([C@H]3C[C@H]3CCOc3ccc(CC(=O)N4CCC4)cc3F)CC2)nc1` [Example 251] showed an EC50 of 5.5 nM.

With `O=C(Cc1ccc(OCC[C@@H]2C[C@@H]2C2CCN(c3ncc(Cl)cn3)CC2)cc1F)NC1CCCC1` [Example 83], the EC50 was determined as 1.3 nM.

The compound `O=C(Cc1ccc(OCC[C@@H]2C[C@@H]2C2CCN(c3ncc(Cl)cn3)CC2)cc1F)N1CCc2nc(C3CC3)sc2C1` [Example 184] came in with an EC50 of 1.7 nM.

Regarding `O=C(Cc1ccc(OCC[C@@H]2C[C@@H]2C2CCN(c3ncc(Cl)cn3)CC2)cc1)NC1CC1` [Example 2], a half-maximal response (EC50) required 1.8 nM.

The compound `COCc1cnc(N2CCC([C@H]3C[C@H]3CCOc3ccc(Cc4nnco4)c(F)c3)CC2)nc1` [Example 246] had an EC50 of 7.7 nM.

The compound `O=C(Cc1ccc(OCC[C@@H]2C[C@@H]2C2CCN(c3ncc(Cl)cn3)CC2)cc1F)N1Cc2cccnc2C1` [Example 123] gave an EC50 of 0.78 nM.

For the compound `COCc1cnc(N2CCC([C@H]3C[C@H]3CCOc3cc(F)c(CC(=O)N4CCCC4)c(F)c3)CC2)nc1` [Example 228], a half-maximal response (EC50) required 0.2 nM.

With `O=C(Cc1ccc(OCC[C@@H]2C[C@@H]2C2CCN(c3ncc(Cl)cn3)CC2)cc1F)N1CCc2sc(C(F)(F)F)nc2C1` [Example 186], the EC50 amounted to 1.7 nM.

`O=C(Cc1ccc(OCC[C@@H]2C[C@@H]2C2CCN(c3ncc(Cl)cn3)CC2)cc1F)N1CCc2scnc2C1` [Example 172] displayed an EC50 of 0.6 nM. This EC50 is about 2.8-fold lower than that of the compound before.

Regarding `CCOc1cnc(N2CCC([C@H]3C[C@H]3CCOc3cc(F)c(CC(=O)N4CC(C)(O)C4)c(F)c3)CC2)nc1` [Example 233], the response was half-maximal at 0.66 nM (EC50).

`COc1cnc(N2CCC([C@H]3C[C@H]3CCOc3ccc(CC(=O)N4CC(F)(F)C4)c(F)c3)CC2)nc1` [Example 40]: the EC50 worked out at 0.42 nM. Against the preceding compound, the EC50 is about 1.6-fold lower.

On to `COc1cnc(N2CCC([C@H]3C[C@H]3CCOc3ccc(CC(=O)N(C)C)c(F)c3)CC2)nc1` [Example 36], for which the EC50 came to 1.7 nM.

In turn, `CC(C)(O)c1cnc(N2CCC([C@H]3C[C@H]3CCOc3cc(F)c(CC(=O)N4CCC4)c(F)c3)CC2)nc1` [Example 206] returned an EC50 of 0.71 nM.

Consider `COCc1cnc(N2CCC([C@H]3C[C@H]3CCOc3ccc(CC(=O)N4CC(OC)C4)cc3)CC2)nc1` [Example 8], for which the EC50 is 2.9 nM.

Compound `CCOCc1cnc(N2CCC([C@H]3C[C@H]3CCOc3ccc(CC(=O)N4CCC4)c(F)c3)CC2)nc1` [Example 200] returned an EC50 of 0.79 nM. Compared with the last compound, the EC50 is about 3.7-fold lower.

Compound `COC(=O)C1CN(C(=O)Cc2ccc(OCC[C@@H]3C[C@@H]3C3CCN(c4ncc(Cl)cn4)CC3)cc2F)C1` [Example 115] gave an EC50 of 2.2 nM.

`O=C(c1cn2c(n1)CN(C(=O)Cc1ccc(OCC[C@@H]3C[C@@H]3C3CCN(c4ncc(Cl)cn4)CC3)cc1F)CC2)C1CC1` [Example 144] came in with an EC50 of 7.2 nM. This EC50 lies about 3.3-fold higher than the previous one.

`O=C(Cc1ccc(OCC[C@@H]2C[C@@H]2C2CCN(c3ncc(Cl)cn3)CC2)cc1F)NC(C1CC1)C1CC1` [Example 110]: the EC50 turned out to be 5.8 nM.

`CCc1cnc(N2CCC([C@H]3C[C@H]3CCOc3ccc(CC(=O)NC4CC4)c(F)c3)CC2)nc1` [Example 208] had an EC50 of 1.9 nM.

With `CC(C)(O)c1cnc(N2CCC([C@H]3C[C@H]3CCOc3ccc(CC(=O)N4CCC4)c(F)c3)CC2)nc1` [Example 205, 1-(azetidin-1-yl)-2-(2-fluoro-4-{2-[(1S,2R)-2-{1-[5-(2-hydroxypropan-2-yl]pyrimidin-2-yl]piperidin-4-yl}cyclopropyl]ethoxy}phenyl)ethanone], the EC50 is 7.5 nM.

For `CC(CO)NC(=O)Cc1ccc(OCC[C@@H]2C[C@@H]2C2CCN(c3ncc(Cl)cn3)CC2)cc1F` (stereo partly shown) [Example 116], the EC50 turned out to be 9.2 nM. The EC50 values of the last two compounds are within 1.5-fold of each other.

With `O=C(Cc1ccc(OCC[C@@H]2C[C@@H]2C2CCN(c3ncc(Cl)cn3)CC2)cc1F)N1CCc2[nH]ncc2C1` [Example 139], it took 2 nM to reach a half-maximal effect (EC50).

`CCOCc1cnc(N2CCC([C@H]3C[C@H]3CCOc3ccc(CC(=O)N(C)C)c(F)c3)CC2)nc1` [Example 204] showed a half-maximal effective concentration (EC50) of 1.2 nM.

`Cc1nnc(Cc2ccc(OCC[C@@H]3C[C@@H]3C3CCN(c4ncc(Cl)cn4)CC3)cc2F)o1` [Example 244, 5-chloro-2-{4-[(1R,2S)-2-(2-{3-fluoro-4-[(5-methyl-1,3,4-oxadizol-2-yl)methyl]phenoxy}ethyl)cyclopropyl]piperidin-1-yl}pyrimidine] came in with a half-maximal effective concentration (EC50) of 5.1 nM.

Regarding `CCc1cnc(N2CCC([C@H]3C[C@H]3CCOc3ccc(CC(=O)N4CCC4)c(C#N)c3)CC2)nc1` [Example 24], a half-maximal response (EC50) required 0.4 nM.

The compound `C[C@H](CO)NC(=O)Cc1ccc(OCC[C@@H]2C[C@@H]2C2CCN(c3ncc(Cl)cn3)CC2)cc1F` [Example 113] came in with an EC50 of 3.9 nM.

In turn, `O=C(Cc1ccc(OCC[C@@H]2C[C@@H]2C2CCN(c3ncc(Cl)cn3)CC2)cc1F)N1CCn2c(nnc2C(F)(F)F)C1` [Example 133] showed an EC50 of 0.91 nM.

As to `COc1cnc(N2CCC([C@H]3C[C@H]3CCOc3ccc(CC(=O)N4CC(F)C4)c(F)c3)CC2)nc1` [Example 39], the EC50 came out at 0.48 nM.

The compound `O=C(Cc1ccc(OCC[C@@H]2C[C@@H]2C2CCN(c3ncc(Cl)cn3)CC2)cc1F)N1CCCc2ncccc21` [Example 131] registered an EC50 of 8 nM.

The compound `CC1c2ncc(C(F)(F)F)n2CCN1C(=O)Cc1ccc(OCC[C@@H]2C[C@@H]2C2CCN(c3ncc(Cl)cn3)CC2)cc1F` (stereo partly shown) [Example 180] yielded an EC50 of 0.82 nM.
